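Exposure lasted 48 hours, with cells grown in 96-well plates and compounds tested at five concentrations. GI50: concentration for 50% inhibition of growth.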 Active and inactive are the calls of the source. Rule as the data show it: active = GI50 up to about 1.1 µM and inactive = higher.
Tests used:
Experiment in all cases: NCI-60 cell line screen, 48 h
OVCAR-3 = tested on: OVCAR-3
RXF 393 = tested on: RXF 393
UACC-62 = tested on: UACC-62
UACC-257 = tested on: UACC-257
EKVX = tested on: EKVX
SN12C = tested on: SN12C
HCT-15 = tested on: HCT-15
HCT-116 = tested on: HCT-116
HOP-62 = tested on: HOP-62
SF-295 = tested on: SF-295
TK-10 = tested on: TK-10
Malme-3M = tested on: Malme-3M
MOLT-4 = tested on: MOLT-4
CCRF-CEM = tested on: CCRF-CEM
LOX IMVI = tested on: LOX IMVI
SW-620 = tested on: SW-620
K562 = tested on: K562
SK-OV-3 = tested on: SK-OV-3
NCI-H23 = tested on: NCI-H23
SR = tested on: SR

| Compound | GI50 (OVCAR-3) | GI50 (RXF 393) | GI50 (UACC-62) | GI50 (UACC-257) | GI50 (EKVX) | GI50 (SN12C) | GI50 (HCT-15) [µM] | GI50 (HCT-116) | GI50 (HOP-62) | GI50 (SF-295) | GI50 (TK-10) | GI50 (Malme-3M) | GI50 (MOLT-4) | GI50 (CCRF-CEM) | GI50 (LOX IMVI) | GI50 (SW-620) | GI50 (K562) | GI50 (SK-OV-3) | GI50 (NCI-H23) | GI50 (SR) |
| --- | --- | --- | --- | --- | --- | --- | --- | --- | --- | --- | --- | --- | --- | --- | --- | --- | --- | --- | --- | --- |
| C=CCNC(=O)CN(CC(=O)OC)C1CCCCC1N(CC(=O)OC)CC(=O)OC (centres undefined) | > 100 µM (inactive) | > 100 µM (inactive) | > 100 µM (inactive) | > 100 µM (inactive) | > 100 µM (inactive) | > 100 µM (inactive) | > 100 | > 100 µM (inactive) | > 100 µM (inactive) | > 100 µM (inactive) | > 100 µM (inactive) | > 100 µM (inactive) | > 100 µM (inactive) | > 100 µM (inactive) | > 100 µM (inactive) | > 100 µM (inactive) | > 100 µM (inactive) | > 100 µM (inactive) | > 100 µM (inactive) | – |
| CC1OC(CO)(n2cnc3c(N)ncnc32)C(O)C1O (centres undefined) | > 100 µM (inactive) | > 100 µM (inactive) | > 100 µM (inactive) | > 100 µM (inactive) | > 100 µM (inactive) | > 100 µM (inactive) | > 100 | > 100 µM (inactive) | > 100 µM (inactive) | > 100 µM (inactive) | – | > 100 µM (inactive) | > 100 µM (inactive) | > 100 µM (inactive) | > 100 µM (inactive) | > 100 µM (inactive) | > 100 µM (inactive) | > 100 µM (inactive) | > 100 µM (inactive) | – |
| O=C1C(Cl)N(c2ccccc2Cl)C1c1c[nH]c2ccccc12 (centres undefined) | > 100 µM (inactive) | > 100 µM (inactive) | > 100 µM (inactive) | > 100 µM (inactive) | > 100 µM (inactive) | > 100 µM (inactive) | – | > 100 µM (inactive) | > 100 µM (inactive) | > 100 µM (inactive) | > 100 µM (inactive) | > 100 µM (inactive) | > 100 µM (inactive) | > 100 µM (inactive) | – | > 100 µM (inactive) | > 100 µM (inactive) | > 100 µM (inactive) | > 100 µM (inactive) | > 100 µM (inactive) |
| C=C(/C=C/C=C(\C)CCC=C(C)C)[C@@H]1CC[C@]2([C@H](CCCO)/C(=C(/C)C=O)CC[C@]2(C)O)[C@@H]1O | – | 22.6 µM (inactive) | – | 22.6 µM (inactive) | 22.4 µM (inactive) | 17.1 µM (inactive) | 19.4 | – | – | 15.6 µM (inactive) | 31.3 µM (inactive) | 11.8 µM (inactive) | 7.62 µM (inactive) | 15.8 µM (inactive) | 14.7 µM (inactive) | 16.3 µM (inactive) | 11.2 µM (inactive) | > 100 µM (inactive) | 19.5 µM (inactive) | 18.8 µM (inactive) |
| CNC(=O)N(C)COC | 32.3 µM (inactive) | – | > 100 µM (inactive) | > 100 µM (inactive) | > 100 µM (inactive) | > 100 µM (inactive) | > 100 | > 100 µM (inactive) | > 100 µM (inactive) | > 100 µM (inactive) | – | > 100 µM (inactive) | > 100 µM (inactive) | > 100 µM (inactive) | > 100 µM (inactive) | > 100 µM (inactive) | – | > 100 µM (inactive) | – | > 100 µM (inactive) |
| O=C(O)CN1CCN(CC(=O)O)CCN(CC(=O)O)CC1 | > 94.6 µM (inactive) | 5.64 µM (inactive) | 7.98 µM (inactive) | 58.7 µM (inactive) | 59.2 µM (inactive) | > 100 µM (inactive) | 4.53 | 3.7 µM (inactive) | > 100 µM (inactive) | 37.5 µM (inactive) | > 48.8 µM (inactive) | > 28.7 µM (inactive) | 4.71 µM (inactive) | 3.91 µM (inactive) | > 24.1 µM (inactive) | 8.47 µM (inactive) | 2.31 µM (inactive) | 8.38 µM (inactive) | 28.6 µM (inactive) | 3.27 µM (inactive) |
| CC(C)CNC1=NCC(C)S1 (centres undefined) | > 100 µM (inactive) | > 100 µM (inactive) | > 100 µM (inactive) | > 100 µM (inactive) | > 100 µM (inactive) | – | > 100 | > 100 µM (inactive) | > 100 µM (inactive) | > 100 µM (inactive) | > 100 µM (inactive) | > 100 µM (inactive) | > 100 µM (inactive) | > 100 µM (inactive) | > 100 µM (inactive) | > 100 µM (inactive) | > 100 µM (inactive) | > 100 µM (inactive) | > 100 µM (inactive) | > 100 µM (inactive) |
| CO[C@H]1ON=C(c2c(C)cc(C)cc2C)[C@@H]1C1(c2ccccc2)ON=C(c2c(C)cc(C)cc2C)O1 (some centres undefined) | – | > 100 µM (inactive) | > 100 µM (inactive) | > 100 µM (inactive) | > 100 µM (inactive) | > 100 µM (inactive) | > 10 | > 100 µM (inactive) | – | > 100 µM (inactive) | > 100 µM (inactive) | > 100 µM (inactive) | 87.1 µM (inactive) | > 100 µM (inactive) | > 100 µM (inactive) | > 100 µM (inactive) | > 100 µM (inactive) | > 100 µM (inactive) | > 100 µM (inactive) | > 100 µM (inactive) |

— ChEMBL document CHEMBL1201862, “PubChem BioAssay data set” (2004)
